Measurements from patent US9290476B2, “Methylene linked quinolinyl modulators of RORγt” (Janssen Pharmaceutica NV, priority 2012, dated 2016).
Counter-ions that a name gives are not always drawn. Like-named read-outs stand apart in the source and are kept apart here.

Columns and labels:
[1] = target: human RORγt ligand binding domain (RORγt LBD) (Homo sapiens (Human), UniProt P51449); experiment: RORγt ThermoFluor assay (thermal shift binding affinity); details: estimated from thermal shift
Method in brief: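 Thermal shift used 0.065 mg/mL RORγt LBD with 60 μM 1,8-ANS in 100 mM Hepes pH 7.0, 10 mM NaCl, 2.5 mM GSH and 0.002% Tween-20, heated at 1 °C/min. Fluorescence was excited at 380–400 nm and emission read at 500 nm.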

[2] = tested on: IL-17 production by CD4 T cells; experiment: Human Th17 assay (IL-17 production by CD4 T cells under Th17 differentiation); assay type: cell-based; details: human CD4+ T cells, IL-17 after 3 days, read-out: Human Th17 Assay, IC50 μM
Description: The human Th17 assay tests the effect of RORγt modulatory compounds on IL-17 production by CD4 T cells under conditions which favor Th17 differentiation.
Total CD4^+ T cells were isolated from the peripheral blood mononuclear cells (PBMC) of healthy donors using a CD4^+ T cell isolation kit II, following the manufacturer's instructions (Miltenyi Biotec). Cells were resuspended in a medium of RPMI-1640 supplemented with 10% fetal bovine serum, penicillin, streptomycin, glutamate, and β-mercaptoethanol and were added to 96-well plates at 1.5×10^5 per 100 μL per well. 50 μL of compound at titrated concentrations in DMSO were added into each well at final DMSO concentration at 0.2%. Cells were incubated for 1 hour, then 50 μL of Th17 cell differentiation medium was added to each well. The final concentrations of antibodies and cytokines (R&D Systems) in differentiation medium were: 3×10^6/mL anti-CD3/CD28 beads (prepared using human T cell activation/expansion kit, Miltenyi Biotec), 10 μg/mL anti-IL4, 10 μg/mL anti-IFNγ, 10 ng/mL IL1β, 10 ng/mL IL23, 50 ng/mL IL6, 3 ng/mL TGFβ and 20 U/mL IL2. Cells were cultured at 37° C. and 5% CO2 for 3 days. Supernatants were collected and the accumulated IL-17 in culture was measured by using MULTI-SPOT® Cytokine Plate following manufacture's instruction (Meso Scale Discovery). The plate was read using Sector Imager 6000, and IL-17 concentration was extrapolated from the standard curve. The IC50s were determined by GraphPad.

human RORγt LBD = human RORγt LBD (Homo sapiens (Human), UniProt P51449); experiment: RORγt reporter assay (GAL4-RORγt LBD luciferase in HEK293T cells); assay type: cell-based; details: for IC50 / RORγt reporter Assay, % inhibition @ 6 μM: HEK293T cells; for IC50: 24 hours compound treatment; for inhibition at 6 µM: HEK-293T, read-out: RORγt reporter Assay, % inhibition @ 6 μM, HEK293T cells, 6 μM
Chain of human RORγt LBD (P51449 258-518): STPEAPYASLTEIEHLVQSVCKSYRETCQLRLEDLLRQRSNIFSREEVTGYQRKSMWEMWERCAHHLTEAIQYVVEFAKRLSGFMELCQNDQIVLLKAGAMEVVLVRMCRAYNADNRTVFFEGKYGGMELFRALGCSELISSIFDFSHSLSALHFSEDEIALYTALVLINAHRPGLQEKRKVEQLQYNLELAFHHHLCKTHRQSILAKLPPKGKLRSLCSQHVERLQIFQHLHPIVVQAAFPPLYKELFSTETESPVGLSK
Method in brief: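 HEK293T cells transiently co-transfected with GAL4-DBD–wild-type human RORγt LBD (pBIND) and GAL4-responsive firefly luciferase reporter (pGL4.31); renilla luciferase from pBIND normalises transfection/viability. Cells in phenol-red-free DMEM, 5% lipid-reduced FCS, treated with compound 24 h. Firefly/renilla ratio plotted against compound concentration.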

Chain of human RORγt ligand binding domain (RORγt LBD) (P51449 other isoform, or with tags, fused parts or gaps): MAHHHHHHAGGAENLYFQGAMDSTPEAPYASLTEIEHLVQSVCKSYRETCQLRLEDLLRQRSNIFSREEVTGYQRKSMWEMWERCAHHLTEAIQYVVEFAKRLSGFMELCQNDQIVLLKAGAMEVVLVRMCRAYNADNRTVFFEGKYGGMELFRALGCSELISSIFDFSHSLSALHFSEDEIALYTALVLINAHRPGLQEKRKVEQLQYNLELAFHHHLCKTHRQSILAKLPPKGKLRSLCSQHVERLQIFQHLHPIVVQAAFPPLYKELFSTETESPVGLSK

Row | Kd [1] [µM] | IC50 ([2]; Homo sapiens, CD4+ T, 72 h) [µM] | IC50 (human RORγt LBD) [µM] | inhibition at 6 µM (human RORγt LBD) [%] | IC50 [2] [µM] | RORγt reporter Assay, % inhibition @ 6 μM (human RORγt LBD) [%] | SMILES
1 | 0.0014 | 0.0014 | 0.0042 | 100 | – | – | COc1nc2ccc(C(O)(c3cnnn3C)C3CN(C(C)=O)C3)cc2c(Cl)c1Cc1ccc(C(F)(F)F)cc1 (racemic) [Example 97A, 1-(3-((4-Chloro-2-methoxy-3-(4-(trifluoromethyl)benzyl)quinolin-6-yl)(hydroxy)(1-methyl-1H-1,2,3-triazol-5-yl)methyl)azetidin-1-yl)ethanone]
2 | 0.0014 | 0.039 | 0.047 | 100 | – | – | COc1ccc(C(O)(c2ccc3nc(OC)c(Cc4ccc(-n5cccn5)cc4)c(Cl)c3c2)c2cncs2)cn1 (single isomer, unassigned) [Example 20B, (3-(4-(1H-pyrazol-1-yl)benzyl)-4-chloro-2-methoxyquinolin-6-yl)(6-methoxypyridin-3-yl)(thiazol-5-yl)methanol]
3 | 0.0053 | – | 0.06 | – | 0.069 | 102 | COc1ccc(C(O)(c2ccc3nc(OC)c(Cc4ccc(-n5cccn5)cc4)c(Cl)c3c2)c2cncs2)cn1 (single isomer, unassigned) [Example 20C, (3-(4-(1H-pyrazol-1-yl)benzyl)-4-chloro-2-methoxyquinolin-6-yl)(6-methoxypyridin-3-yl)(thiazol-5-yl)methanol]
4 | 0.0058 | 0.066 | 0.087 | – | – | 97 | COc1nc2c(C)cc(C(O)(c3ccc(Cl)cc3)c3cncn3C)cc2c(Cl)c1Cc1ccc(-n2cccn2)cc1 (single isomer, unassigned) [Example 28C, (3-(4-(1H-pyrazol-1-yl)benzyl)-4-chloro-2-methoxy-8-methylquinolin-6-yl)(4-chlorophenyl)(1-methyl-1H-imidazol-5-yl)methanol]
5 | 0.093 | – | 0.13 | 102 | 0.19 | – | COc1nc2c(C)cc(C(O)(c3ccc(C(F)(F)F)nc3)c3cncn3C)cc2c(Cl)c1Cc1ccc(-n2cccn2)cc1 (single isomer, unassigned) [Example 29B, (3-(4-(1H-pyrazol-1-yl)benzyl)-4-chloro-2-methoxy-8-methylquinolin-6-yl)(1-methyl-1H-imidazol-5-yl)(6-(trifluoromethyl)pyridin-3-yl)methanol]
6 | 0.0049 | – | 0.081 | – | 0.09 | 97 | COc1nc2c(C)cc(C(O)(c3ccc(C(F)(F)F)nc3)c3cncn3C)cc2c(Cl)c1Cc1ccc(-n2cccn2)cc1 (single isomer, unassigned) [Example 29C, (3-(4-(1H-pyrazol-1-yl)benzyl)-4-chloro-2-methoxy-8-methylquinolin-6-yl)(1-methyl-1H-imidazol-5-yl)(6-(trifluoromethyl)pyridin-3-yl)methanol]
7 | – | 0.086 | – | – | – | 94 | COc1nc2ccc(C(O)(c3ccc(Cl)cc3)c3cncn3C)cc2c(Cl)c1Cc1ccc(-n2cncn2)cc1 (single isomer, unassigned) [Example 64C, (3-(4-(1H-1,2,4-triazol-1-yl)benzyl)-4-chloro-2-methoxyquinolin-6-yl)(4-chlorophenyl)(1-methyl-1H-imidazol-5-yl)methanol]
8 | – | 0.055 | – | 100 | – | – | Cn1cncc1C(O)(c1ccc(C(F)(F)F)nc1)c1ccc2nc(C#N)c(Cc3ccc(-n4cccn4)cc3)c(C#N)c2c1 (single isomer, unassigned) [Example 72C, 3-(4-(1H-Pyrazol-1-yl)benzyl)-6-(hydroxy(1-methyl-1H-imidazol-5-yl)(6-(trifluoromethyl)pyridin-3-yl)methyl)quinoline-2,4-dicarbonitrile]
9 | – | – | – | 98 | 0.36 | – | COc1nc2ccc(C(O)(c3ccc(C)nc3C)c3cnnn3C)cc2c(Cl)c1Cc1ccc(C(F)(F)F)cc1 (single isomer, unassigned) [Example 77B, (4-chloro-2-methoxy-3-(4-(trifluoromethyl)benzyl)quinolin-6-yl)(2,6-dimethylpyridin-3-yl)(1-methyl-1H-1,2,3-triazol-5-yl)methanol]
10 | – | – | – | – | 0.0021 | 100 | COc1nc2ccc(C(O)(c3ccc(C)nc3C)c3cnnn3C)cc2c(Cl)c1Cc1ccc(C(F)(F)F)cc1 (single isomer, unassigned) [Example 77C, (4-chloro-2-methoxy-3-(4-(trifluoromethyl)benzyl)quinolin-6-yl)(2,6-dimethylpyridin-3-yl)(1-methyl-1H-1,2,3-triazol-5-yl)methanol]
11 | – | 0.004 | – | – | – | 99 | COc1nc2ccc(C(O)(c3ccc(C)nc3C)c3cnnn3C)cc2c(C#N)c1Cc1ccc(C(F)(F)F)cc1 (single isomer, unassigned) [Example 78C, 6-((2,6-Dimethylpyridin-3-yl)(hydroxy)(1-methyl-1H-1,2,3-triazol-5-yl)methyl)-2-methoxy-3-(4-(trifluoromethyl)benzyl)quinoline-4-carbonitrile]
12 | – | – | – | 92 | 0.05 | – | COc1nc2ccc(C(O)(c3cnnn3C)c3cnc(C)n3C)cc2c(Cl)c1Cc1ccc(C(F)(F)F)cc1 (single isomer, unassigned) [Example 80B, (4-chloro-2-methoxy-3-(4-(trifluoromethyl)benzyl)quinolin-6-yl)(1,2-dimethyl-1H-imidazol-5-yl)(1-methyl-1H-1,2,3-triazol-5-yl)methanol]
13 | – | – | – | – | 0.002 | 93 | COc1nc2ccc(C(O)(c3cnnn3C)c3cnc(C)n3C)cc2c(Cl)c1Cc1ccc(C(F)(F)F)cc1 (single isomer, unassigned) [Example 80C, (4-chloro-2-methoxy-3-(4-(trifluoromethyl)benzyl)quinolin-6-yl)(1,2-dimethyl-1H-imidazol-5-yl)(1-methyl-1H-1,2,3-triazol-5-yl)methanol]
14 | – | – | – | 97 | 0.022 | – | CCc1nc2ccc(C(O)(c3cnnn3C)C3CN(S(C)(=O)=O)C3)cc2c(Cl)c1Cc1ccc(C(F)(F)F)cc1 (single isomer, unassigned) [Example 91B, (4-Chloro-2-ethyl-3-(4-(trifluoromethyl)benzyl)quinolin-6-yl)(1-methyl-1H-1,2,3-triazol-5-yl)(1-(methylsulfonyl)azetidin-3-yl)methanol]
15 | – | – | – | – | 0.0025 | 102 | CCc1nc2ccc(C(O)(c3cnnn3C)C3CN(S(C)(=O)=O)C3)cc2c(Cl)c1Cc1ccc(C(F)(F)F)cc1 (single isomer, unassigned) [Example 91C, (4-Chloro-2-ethyl-3-(4-(trifluoromethyl)benzyl)quinolin-6-yl)(1-methyl-1H-1,2,3-triazol-5-yl)(1-(methylsulfonyl)azetidin-3-yl)methanol]
16 | – | 0.024 | 0.013 | 104 | – | – | Cn1cncc1C(O)(c1ccc2nc(Cl)c(Cc3ccc(-n4cccn4)cc3)c(Cl)c2c1)c1cncs1 (centres unmarked) [Example 15, (3-(4-(1H-Pyrazol-1-yl)benzyl)-2,4-dichloroquinolin-6-yl)(1-methyl-1H-imidazol-5-yl)(thiazol-5-yl)methanol.TFA]
17 | – | – | 0.29 | – | 0.3 | 97 | Cc1cc(C(O)(c2ccc(Cl)cc2)c2cncn2C)cc2c(Cl)c(Cc3ccc(-n4cccn4)cc3)c(Cl)nc12 (centres unmarked) [Example 27, (3-(4-(1H-Pyrazol-1-yl)benzyl)-2,4-dichloro-8-methylquinolin-6-yl)(4-chlorophenyl)(1-methyl-1H-imidazol-5-yl)methanol.TFA salt]
18 | – | 0.025 | – | 99 | – | – | Cn1cncc1C(O)(c1ccc(C(F)(F)F)nc1)c1ccc2nc(C#N)c(Cc3ccc(-n4cccn4)cc3)c(C#N)c2c1 (centres unmarked) [Example 72B, 3-(4-(1H-Pyrazol-1-yl)benzyl)-6-(hydroxy(1-methyl-1H-imidazol-5-yl)(6-(trifluoromethyl)pyridin-3-yl)methyl)quinoline-2,4-dicarbonitrile]
